How the values were obtained:
mGAT1 [1] = biological target: T1, mGAT1 (Mus musculus, UniProt P31648); assay: MS Binding Assay with NO 711 as marker; details: MS Binding Assay, NO 711 marker; read-out: pKi ± SEM toward mGAT1 (converted)
mGAT2 = biological target: T2, mGAT2 (Mus musculus, UniProt P31651); assay: [3H]GABA uptake assay, mGAT2; type: cell-based; details: GABA uptake assay; read-out: mGAT2 IC50
T2 sequence (P31651 1-614): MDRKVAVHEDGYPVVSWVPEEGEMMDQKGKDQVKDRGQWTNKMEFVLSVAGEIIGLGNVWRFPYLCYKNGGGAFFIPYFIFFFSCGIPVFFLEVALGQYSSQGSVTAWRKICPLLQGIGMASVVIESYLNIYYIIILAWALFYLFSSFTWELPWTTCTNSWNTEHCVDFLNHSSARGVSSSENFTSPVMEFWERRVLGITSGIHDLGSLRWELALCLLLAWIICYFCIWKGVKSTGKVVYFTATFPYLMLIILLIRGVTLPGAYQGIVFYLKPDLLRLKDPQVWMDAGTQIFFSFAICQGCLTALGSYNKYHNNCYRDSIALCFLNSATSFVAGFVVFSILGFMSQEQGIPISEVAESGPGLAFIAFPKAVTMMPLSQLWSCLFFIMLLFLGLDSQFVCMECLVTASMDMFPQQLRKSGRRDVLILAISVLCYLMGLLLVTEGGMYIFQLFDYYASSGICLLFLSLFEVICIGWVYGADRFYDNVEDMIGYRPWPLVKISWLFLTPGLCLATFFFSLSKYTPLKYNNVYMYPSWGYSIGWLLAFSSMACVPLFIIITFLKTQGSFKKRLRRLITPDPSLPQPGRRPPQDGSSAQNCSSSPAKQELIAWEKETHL

mGAT4 = biological target: T3, mGAT4 (Mus musculus, UniProt P31650); assay: [3H]GABA uptake assay, mGAT4; type: cell-based; details: GABA uptake assay; mGAT4 corresponds to GAT3; read-out: mGAT4 IC50
T3 sequence (P31650 1-627): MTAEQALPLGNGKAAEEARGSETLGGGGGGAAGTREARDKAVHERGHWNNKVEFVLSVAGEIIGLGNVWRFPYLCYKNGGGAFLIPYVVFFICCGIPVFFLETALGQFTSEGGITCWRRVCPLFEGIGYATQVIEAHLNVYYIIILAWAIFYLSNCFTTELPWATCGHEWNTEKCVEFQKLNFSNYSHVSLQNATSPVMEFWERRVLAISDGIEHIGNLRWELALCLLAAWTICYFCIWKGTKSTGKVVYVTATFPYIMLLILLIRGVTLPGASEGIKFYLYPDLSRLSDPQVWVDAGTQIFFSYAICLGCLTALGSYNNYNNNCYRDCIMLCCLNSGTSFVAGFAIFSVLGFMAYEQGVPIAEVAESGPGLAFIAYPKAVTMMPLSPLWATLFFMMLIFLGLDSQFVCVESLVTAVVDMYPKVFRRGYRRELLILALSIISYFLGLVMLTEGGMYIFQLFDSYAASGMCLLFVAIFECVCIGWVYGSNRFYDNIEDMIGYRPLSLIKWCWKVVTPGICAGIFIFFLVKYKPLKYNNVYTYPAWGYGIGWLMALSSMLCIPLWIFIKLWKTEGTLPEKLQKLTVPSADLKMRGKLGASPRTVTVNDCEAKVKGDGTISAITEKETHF

mGAT3 = biological target: T4, mGAT3 (Mus musculus, UniProt P31649); assay: [3H]GABA uptake assay, mGAT3; type: cell-based; details: GABA uptake assay; read-out: mGAT3 IC50
T4 sequence (P31649 1-602): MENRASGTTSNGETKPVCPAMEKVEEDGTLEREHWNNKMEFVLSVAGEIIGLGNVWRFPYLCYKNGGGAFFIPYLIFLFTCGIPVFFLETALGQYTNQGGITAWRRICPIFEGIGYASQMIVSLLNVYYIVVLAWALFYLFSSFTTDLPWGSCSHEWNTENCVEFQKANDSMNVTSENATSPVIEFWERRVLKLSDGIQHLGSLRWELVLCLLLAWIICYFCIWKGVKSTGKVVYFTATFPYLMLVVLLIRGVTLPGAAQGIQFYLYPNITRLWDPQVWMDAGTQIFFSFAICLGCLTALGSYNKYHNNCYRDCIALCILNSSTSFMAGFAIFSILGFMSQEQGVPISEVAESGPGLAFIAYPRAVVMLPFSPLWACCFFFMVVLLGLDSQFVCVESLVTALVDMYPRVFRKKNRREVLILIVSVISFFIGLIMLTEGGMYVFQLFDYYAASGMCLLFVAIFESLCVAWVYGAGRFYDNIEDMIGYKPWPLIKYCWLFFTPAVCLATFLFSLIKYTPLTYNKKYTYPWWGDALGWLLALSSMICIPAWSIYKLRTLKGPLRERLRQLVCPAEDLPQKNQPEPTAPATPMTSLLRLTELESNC

[2] = biological target: T5, human butyrylcholinesterase (hBuChE) (Homo sapiens, UniProt P06276); assay: biochemical; details: for IC50: means±SEM of at least three experiments
T5 construct: from human plasma was from Vivonics (Bedford, MA, USA); purchased Vivonics (Bedford, MA, USA); host or cells: human plasma

mGAT1 [3] = biological target: T1, mGAT1; assay: [3H]GABA uptake assay, mGAT1; type: cell-based; details: GABA uptake assay; read-out: mGAT1 IC50
eeAChE = biological target: T6, eeAChE (Electrophorus electricus, UniProt O42275); assay: Cholinesterase inhibition, Ellman's protocol, eeAChE; type: biochemical; details: read-out: eeAChE % inh.
T6 construct: purchased Sigma-Aldrich
Experimental: In vitro pharmacological assays.
The in vitro inhibitory activity toward cholinesterases (eeAChE, eqBuChE,
The target compounds were tested for their inhibitory potency against cholinesterases using
Ellman’s protocol[32] modified for 96-well microplates.
The stock solutions of the
target compounds were prepared in DMSO and diluted with water, giving the desired final
concentrations. The enzymes were prepared as 5 U/mL aqueous stock solutions and diluted
(AChE or BuChE) were added to the reaction mixture in the wells, containing 25 μL of the
target compound (in case of blank samples – water or water/DMSO mixture), 200 μL of 0.1
M phosphate buffer (pH = 8.0) and 20 μL of 5,5'-dithiobis-(2-nitrobenzoic acid) DTNB
All those reagents were preincubated for 5 min at 25 °C for the reactions with the
animal enzymes (eeAChE or eqBuChe) and 36 °C for the human enzyme ( hBuChE) tests. The
enzymatic reaction was initiated by the addition of 20 μL of substrate acetylthiocholine iodide
using the EnSpire multimode microplate reader (PerkinElmer, Waltham, MA, USA). Target
compounds were tested at the screening concentrations of 10 μM or 1 µM for inhibitory
potencies towards animal cholinesterases or human enzyme, respectively. Percent of enzyme
inhibition was calculated based on the formula 100 -(S/B)x100, where S and B were the
respective enzyme activities with and without the test compound, respectively. Compounds
with the enzyme inhibitory activities at 10 μM better than 50% ( eeAChE or eqBuChe) and at
were based on the absorbance measured at seven different inhibitor concentrations, then
percentages of enzymes’ inhibition were plotted against the applied inhibitor concentrations
using nonlinear regression (GraphPad Prism 9; GraphPad Software, San Diego, CA, USA).
All the experiments were performed in
a %inh. at an inhibitor concentration of 10 µM

eqBuChE = biological target: T7, eqBuChE (Equus caballus, UniProt P81908); assay: biochemical; details: means±SEM of at least three experiments
T7 construct: purchased Sigma-Aldrich
T7 sequence (P81908 whole entry): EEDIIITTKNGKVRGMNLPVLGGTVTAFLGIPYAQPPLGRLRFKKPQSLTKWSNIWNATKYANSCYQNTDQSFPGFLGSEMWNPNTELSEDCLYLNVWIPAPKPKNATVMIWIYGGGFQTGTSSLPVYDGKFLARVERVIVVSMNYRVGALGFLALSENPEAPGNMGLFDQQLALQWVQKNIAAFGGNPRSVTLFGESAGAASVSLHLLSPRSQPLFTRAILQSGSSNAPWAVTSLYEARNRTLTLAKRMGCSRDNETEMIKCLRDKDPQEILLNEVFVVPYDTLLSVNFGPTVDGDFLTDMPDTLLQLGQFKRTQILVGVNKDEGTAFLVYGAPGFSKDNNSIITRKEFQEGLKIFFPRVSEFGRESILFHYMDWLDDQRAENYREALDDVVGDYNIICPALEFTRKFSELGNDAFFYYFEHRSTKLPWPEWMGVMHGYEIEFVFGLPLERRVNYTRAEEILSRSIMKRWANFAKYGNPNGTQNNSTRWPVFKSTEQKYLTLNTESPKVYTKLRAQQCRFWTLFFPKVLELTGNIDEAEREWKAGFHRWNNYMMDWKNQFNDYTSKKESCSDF

T6 sequence (O42275 24-633): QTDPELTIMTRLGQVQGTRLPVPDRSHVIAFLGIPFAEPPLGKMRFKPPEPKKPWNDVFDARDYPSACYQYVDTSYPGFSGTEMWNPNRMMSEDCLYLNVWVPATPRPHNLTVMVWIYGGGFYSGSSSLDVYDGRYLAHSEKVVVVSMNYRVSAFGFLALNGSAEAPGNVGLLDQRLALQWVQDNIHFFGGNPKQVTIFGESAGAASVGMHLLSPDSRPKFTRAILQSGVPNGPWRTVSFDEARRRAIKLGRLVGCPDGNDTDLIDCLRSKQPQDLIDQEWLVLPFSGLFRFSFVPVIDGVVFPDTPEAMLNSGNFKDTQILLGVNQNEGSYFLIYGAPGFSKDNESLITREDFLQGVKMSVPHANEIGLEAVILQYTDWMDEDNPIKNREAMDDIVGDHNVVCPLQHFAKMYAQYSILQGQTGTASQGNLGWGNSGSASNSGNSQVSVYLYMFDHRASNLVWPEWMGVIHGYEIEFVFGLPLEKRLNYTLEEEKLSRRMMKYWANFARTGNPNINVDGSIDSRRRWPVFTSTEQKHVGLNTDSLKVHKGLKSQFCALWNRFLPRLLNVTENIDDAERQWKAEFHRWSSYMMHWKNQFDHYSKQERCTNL
T5 sequence (P06276 29-602): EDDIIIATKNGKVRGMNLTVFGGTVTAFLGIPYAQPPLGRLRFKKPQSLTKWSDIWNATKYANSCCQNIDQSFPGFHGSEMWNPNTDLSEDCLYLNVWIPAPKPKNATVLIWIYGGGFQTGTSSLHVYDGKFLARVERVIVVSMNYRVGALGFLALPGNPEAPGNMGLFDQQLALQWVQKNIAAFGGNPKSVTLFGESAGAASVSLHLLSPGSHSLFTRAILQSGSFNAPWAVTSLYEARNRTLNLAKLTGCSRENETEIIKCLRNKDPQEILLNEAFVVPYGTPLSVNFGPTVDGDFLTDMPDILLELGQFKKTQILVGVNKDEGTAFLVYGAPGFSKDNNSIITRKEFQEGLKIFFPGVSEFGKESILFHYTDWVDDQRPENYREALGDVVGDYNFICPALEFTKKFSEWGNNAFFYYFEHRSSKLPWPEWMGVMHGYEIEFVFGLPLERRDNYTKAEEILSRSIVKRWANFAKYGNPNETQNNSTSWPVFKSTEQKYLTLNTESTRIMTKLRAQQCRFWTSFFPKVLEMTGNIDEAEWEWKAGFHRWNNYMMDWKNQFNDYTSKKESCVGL

| SMILES | Ki (mGAT1 [1]) [µM] | IC50 (mGAT2) [µM] | IC50 (mGAT4) [µM] | IC50 (mGAT3) [µM] | IC50 [2] [µM] | IC50 (mGAT1 [3]) [µM] | inhibition at 10 µM (eeAChE) [%] | IC50 (eqBuChE) [µM] | inhibition at 1 µM ([2]; inhibitor concentration 1 μM, read-out: hBuChE % inh.) [%] |
| --- | --- | --- | --- | --- | --- | --- | --- | --- | --- |
| O[C@H](CNCc1ccccc1)[C@H](Cc1ccccc1)NC1c2ccccc2-c2ccccc21 [Compound 1] | 49 | 9.77 ± 1.82 | 7.76 ± 1.99 | 7.08 ± 1.15 | 0.2 | 11 | < 10 | 0.63 ± 0.02 | – |
| COc1ccccc1CNC[C@H](O)[C@H](Cc1ccccc1)NC1c2ccccc2-c2ccccc21 [Compound 2] | 33.9 | 13.2 | 6.17 ± 0.57 | – | 0.27 ± 0.01 | 6.31 ± 1.02 | < 10 | 0.28 ± 0.01 | – |
| COc1cccc(CNC[C@H](O)[C@H](Cc2ccccc2)NC2c3ccccc3-c3ccccc32)c1 [Compound 3] | 30.9 | 12 | 7.08 ± 0.49 | – | – | 7.41 ± 0.34 | < 10 | 2.2 ± 0.1 | 67.7 |

— publication PMC11796312, “Multifunctional, Fluorene‐Based Modulator of Cholinergic and GABAergic Neurotransmission as a Novel Drug Candidate for Palliative Treatment of Alzheimer's Disease” (Angewandte Chemie (International Ed. in English), 2024)
